Target: RpMetAP1 (Rickettsia prowazekii, UniProt Q9ZCD3)
Conditions: not given

Chain of RpMetAP1 (Q9ZCD3 whole entry, looked up): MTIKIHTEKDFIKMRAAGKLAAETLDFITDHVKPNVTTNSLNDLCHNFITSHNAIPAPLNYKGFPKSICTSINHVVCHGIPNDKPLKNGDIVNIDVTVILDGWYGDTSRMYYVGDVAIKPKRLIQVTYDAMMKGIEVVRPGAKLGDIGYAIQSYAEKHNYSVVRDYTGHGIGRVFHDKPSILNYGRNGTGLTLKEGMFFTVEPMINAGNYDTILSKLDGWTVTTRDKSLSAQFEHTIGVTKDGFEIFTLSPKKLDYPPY

`O=C(O)c1ccc(-c2cccc([N+](=O)[O-])c2)o1` [Compound 2] and `Cc1cccc(-c2ccc(C(=O)O)o2)c1` [Compound 9] are the same in “Hill Slope (furoic acid species)” value: 1.0 ± 0.1 for the first, 1.0 ± 0.1 for the second.

Compared with `O=C(O)c1ccc(-c2cccc(C(F)(F)F)c2)o1` [Compound 3], `O=C(O)c1ccc(-c2ccccc2C(F)(F)F)o1` [Compound 6] is higher in “Hill Slope (furoic acid species)” value: 1.0 ± 0.1 for the first, 2.1 ± 0.1 for the second.

Going from `O=C(O)c1ccc(-c2ccccc2)o1` [Compound 4, 5-phenyl-2-furoic acid] to `Cc1ccccc1-c1ccc(C(=O)O)o1` [Compound 8], the “Hill Slope (furoic acid species)” value rises from 1.0 ± 0.1 to 1.3 ± 0.1.

`Cc1ccc(-c2ccc(C(=O)O)o2)cc1` [Compound 5] and `O=C(O)c1ccc(-c2ccc(Br)cc2)o1` [Compound 7] are the same in “Hill Slope (furoic acid species)” value: 1.0 ± 0.1 for the first, 1.0 ± 0.1 for the second.

First: Cc1ccc2cccc(O)c2n1 [Compound 20, 2-methyl-8-quinolinol]
Second: Oc1ccc(Cl)c2cccnc12 [Compound 22, 5-chloro-8-quinolinol]
The “Hill Slope (quinolinol species)” value of the first is lower: 1.1 ± 0.1 for the first, 1.9 ± 0.2 for the second.

Going from `O=[N+]([O-])c1ccc(O)c2ncccc12` [Compound 23, nitroxoline, reference compound] to `O=[N+]([O-])c1cc(CN2CCOCC2)c(O)c2ncccc12` [Compound 26], the “Hill Slope (quinolinol species)” value falls from 1.7 ± 0.5 to 1.0 ± 0.1.

In the case of `Oc1c(CN2CCOCC2)cc(Cl)c2cccnc12` [Compound 24], the “Hill Slope (quinolinol species)” value is reported as 1.5 ± 0.1.

Tested on: primary pulmonary vascular endothelial cells (ECs)
Conditions: not given

For `Nc1n[nH]c(SCc2ccccc2)n1` [Compound 12], the “Host EC metabolism (WST-1) of uninfected ECs” value (“Host EC metabolism” for short) was “stimulated EC metabolism”.
With `Nc1n[nH]c(SCc2ccccc2Cl)n1` [Compound 15] the “Host EC metabolism” value was “stimulated EC metabolism”.
In the case of `Nc1nnc(SCc2ccc(Cl)cc2)[nH]1` [Compound 16], the “Host EC metabolism” value is reported as “stimulated EC metabolism”.

For `Nc1nnc(SCc2ccc(Cl)cc2)[nH]1` [Compound 16], the “Effect of compound alone on appearance of EC monolayers” value was “no overt effect on the appearance of the monolayers”.

Tested on: HsMetAP2
Conditions: read-out: HsMetAP2 IC50; cited from earlier work

First: CC(C)(C)c1ccc(CSc2nnc(N)[nH]2)cc1 [Compound 19]
Second: Cc1ccc2cccc(O)c2n1 [Compound 20, 2-methyl-8-quinolinol]
The IC50 of the first is higher: greater than 15 µM for the first, 2.03 ± 0.3 µM for the second. The second is the more potent here.

Tested on: HsMetAP1
Conditions: read-out: HsMetAP1 IC50; cited from earlier work

`CC(C)(C)c1ccc(CSc2nnc(N)[nH]2)cc1` [Compound 19] and `Cc1ccc2cccc(O)c2n1` [Compound 20, 2-methyl-8-quinolinol] cannot be ordered by IC50: greater than 15 µM for the first, greater than 15 µM for the second.
